Laboratory results as given in US4859664A, “Derivatives of 2,3,4,5,6,7-hexahydro-2,7-methano-1,5-benzoxazonines and -1,4-benzoxazonines, processes for their production and their use as pharmaceuticals” (priority 1986, dated 1989).
Where two headings read alike, the source gives them in different places.

Legend:
[1] = format: in vivo, male NMRI mice; conditions: for % inhibition action ± SEM with naloxone: with naloxone hydrochloride 20 mg./kg. s.c.; for change in % (with vs without naloxone): given without sign
Protocol: They were given a standard feed and water ad libitum up to the commencement of the experiments.
(§1) The test compounds were administered in a volume of 10 ml./kg./body weight per mouse. As carrier, there was used physiological sodium chloride solution or a suspension of 0.5% tragacanth in physiological sodium chloride solution.
(§2) The experimental results are given as average values with a mean error of the average value (x±S.E.M.). The ED50 values were calculated according to Litchfield and Wilcoxon (J. Pharmacol. Exp. Ther., 96, 99/1949). The compounds were thereby tested in 4 dosages (p≤0.5).
For the significance calculation, there was used Student's t test (see Angewandte Statistik, pub. Stringer Verlag, Berlin, Heidelberg, 242/1983), as well as the range sum test of Mann and Withney (Ann. Math. stat., 50, 1818/1947).
1.1. In the acetic acid writhing test (see R. Koster et al., Fed. proc., 18, 412/1954), the typical stretching movements referred to as "writhing", were produced by the intraperitoneal administration of a 0.6% acetic acid solution. 30 minutes previously, the substance to be tested was administered subcutaneously (s.c.) or orally ([…].) to the animals. 3 minutes after administration of the acetic acid solution, the total number of stretching movements in a period of time of 10 minutes was ascertained. From the decrease of the stretching reactions due to the action of the test compound in comparison with non-pretreated control groups, there was determined the percentage inhibition action.
Naloxone-antagonistic action in the writhing test.
20 Minutes before the subcutaneous administration of the test compounds, the animals were given 20 mg./kg. naloxone hydrochloride subcutaneously. The further carrying out of the experiments was as described above.

[2] = antidepressive action: reserpine reversal test (tetrabenazine); format: in vivo, male NMRI mice; conditions: 50 and 25 mg./kg. s.c.
Protocol: For the pharmacological investigations described in the following, there were used male NMRI mice with a weight of from 15 to 30 g. The animals were kept under usual laboratory conditions, randomised and subjected to a light-dark change with a 12 hour rhythm. They were given a standard feed and water ad libitum up to the commencement of the experiments.
as §1
7. Antidepressive action.
There was used the reserpine reversal test (see G. Zettler, K. Mahler and F. Daniel, Naunyn-Schmiedeberg's Arch. Exp. Path. Pharmacol., 238, 468/1960; ibid. 236, 422/1958). 30 minutes after the subcutaneous administration of the test compounds, the animals (6 animals per dosage group) received subcutaneously 40 mg./kg. tetrabenazine dissolved in 0.5% aqueous ascorbic acid solution. 30 and 60 minutes after the tetrabenazine administration, the animals were placed on a vertical rod (length 90 cm., diameter 1.5 cm., coiled round with 0.2 cm. thick thread) and observed for 30 seconds. Those animals which remained motionless during this time were evaluated as being cataleptic. Previously, the degree of ptosis was assessed.

[3] = influencing of hexobarbital narcosis; format: in vivo, male NMRI mice; conditions: for period of narcosis ± SEM: hexobarbital sodium 100 mg./kg. i.p.
Protocol: […]. They were given a standard feed and water ad libitum up to the commencement of the experiments.
as §1, §2
4. Influencing of hexobarbital narcosis.
The test compounds were administered subcutaneously to 5 animals per dosage group. After 30 minutes, 100 mg./kg. hexobarbital sodium was administered intraperitoneally. 2 to 3 minutes after this injection, the animals allowed themselves to be laid on their backs. For each animal, there was measured the time in minutes from the commencement of the back position up to the time when the animals themselves twice successively again assumed the abdominal position.

Compound	% inhibition action ± SEM with naloxone ([1]; 12.5 mg/kg s.c.)	% inhibition action ± SEM without naloxone ([1]; 12.5 mg/kg s.c.)	change in % (with vs without naloxone) ([1]; 12.5 mg/kg s.c.)	% inhibition action ± SEM with naloxone ([1]; 25 mg/kg s.c.)	% inhibition action ± SEM without naloxone ([1]; 25 mg/kg s.c.)	change in % (with vs without naloxone) ([1]; 25 mg/kg s.c.)	% inhibition action ± SEM with naloxone ([1]; 50 mg/kg s.c.)	% inhibition action ± SEM without naloxone ([1]; 50 mg/kg s.c.)	change in % (with vs without naloxone) ([1]; 50 mg/kg s.c.)	influence on tetrabenazine-induced catalepsy [2]	influence on tetrabenazine-induced ptosis [2]	change with regard to hexabarbital sodium ([3]; 25 mg/kg sc)	period of narcosis ± SEM ([3]; 25 mg/kg sc)	effect on period of narcosis ([3]; 50 mg./kg.)	change with regard to hexabarbital sodium ([3]; 50 mg/kg sc)	period of narcosis ± SEM ([3]; 50 mg/kg sc)
CC12CCNCC(C1)c1ccccc1O2 (stereo not drawn) [Example 6, 2,3,4,5,6,7-hexahydro-2-methyl-2,7-methano-1,5-benzoxazonine]	39.7 ± 10.4%	33.2 ± 3.2%	6.5%	65.5 ± 6.5%	58.9 ± 10.1%	6.6%	91.8 ± 3.3%	84.6 ± 7.7%	7.2%	did not influence	did not influence	–	–	–	–	–
CC1NCCC2(C)CC1c1ccccc1O2 (stereo not drawn) [Example 9, 2,3,4,5,6,7-hexahydro-2,6-dimethyl-2,7-methano-1,5-benzoxazonine]	52.0 ± 1.5%	57.0 ± 7.6%	5.0%	80.1 ± 6.8%	64.0 ± 5.0%	16.1%	88.4 ± 11.6%	84.9 ± 2.7%	3.5%	did not influence	did not influence	-29.4 min	63 ± 21.0 min	statistically verified shortening of the period of narcosis	-53.4 min	39 ± 12.4 min
